Measured values published in publication PMC10986598, “Investigating inhibitors of 1-deoxy-D-xylulose 5-phosphate synthase in a mouse model of UTI” (Microbiology Spectrum, 2024).
Entries after “also recorded” stand apart in the source; their conditions may differ.

Assays:
[1] = In vitro stability in mouse liver microsomes; type: in vitro ADME
Protocol: Figure S1. Percent BAP or pro-hpAP remaining after incubation in mouse liver microsomes (+/-NADPH) (a), mouse plasma (b), or mouse liver homogenates (c). Data shown as bar graphs in Figure 4.

E. coli = details: cited from earlier work
[2] = In vitro stability in mouse plasma; type: in vitro ADME
Protocol: (§1) In vitro stability studies were conducted using our previously published methods naive CD1 mouse plasma or liver homogenate. For liver homogenate stability study, washed mouse liver was diluted 10-fold in 0.1 M potassium phosphate buffer and homogenized using probe sonication. Crude homogenate was then aliquoted to 1 mL, and the homogenate was spiked with 10 µM compound. The plasma stability of the compounds was determined by spiking (10 µM) in 1 mL of plasma and incubating in an orbital shaker at 37°C. All the stability studies were conducted at predetermined times (0, 30, and 60 min), where 100 µL aliquots of the mixture in triplicate were removed and the reaction was quenched by the addition of three times the volume of ice-cold acetonitrile spiked with the internal standard (losartan: 0.5 µM). The samples were vortex-mixed for 30 s and centrifuged at 10,000g for 10 min at 4°C. An amount of 50 µL of the supernatant was diluted with 50 µL of water and transferred to a 250 µL polypropylene vial sealed with a Teflon cap. Compound disappearance was monitored over time using liquid chromatography and tandem mass spectrometry (LC–MS/MS). Paired t-tests were used to determine statistical significance between 0 and 60 min time points.

UPEC strain CFT073 = test: In vivo ascending UTI assay (prophylaxis); set-up: species or system Escherichia coli in C3H/HeN mice; details: for median log reduction of bacterial burden vs PBS-treated cohort: bladder, 48 h
Protocol: Female mice were injected subcutaneously in the flank with 2.5 mg of MPA (150 mg/mL, diluted in sterile saline) 7 days prior to inoculation ([60]). Mice were dosed vaginally with 30 µL of sterile saline lavage fluid immediately prior to inoculation. The fluid was collected, placed on a slide, heat fixed, Gram stained, and assessed to determine the estrous cycle stage of each mouse as previously described ([61]).
Six-week-old female C3H/HeN mice were inoculated with UPEC as previously described ([28]). Briefly, UPEC strain CFT073 (ATCC designation: BAA-2503) was streaked on LB agar from a frozen glycerol stock and grown overnight at 37°C. Following overnight incubation, three to five colonies were picked and subcultured into 10 mL of sterile LB, and the culture was incubated statically overnight at 37°C. The culture was diluted 1:1,000 (25 µL of culture into 25 mL of sterile LB) and incubated statically for 24 h at 37°C to promote the growth of bacteria with type-1 pili expression. The resulting 25 mL inoculum was centrifuged at 4,200 × g for 20 min at 4°C. The supernatant was removed, and the cell pellet was resuspended in 10 mL of sterile PBS. The OD600 was adjusted to 1.0 by the addition of PBS to give a cell density of approximately 4 × 10^7 to 1 × 10^8 CFUs per 50 µL, the volume of the inoculum. Cell counts were validated by plating a dilution of the inoculum solution and enumerating following overnight incubation.
Urinary catheters were assembled by threading 30G needles with 0.28 mm inner diameter polyethylene tubing to create a soft tip. Catheter tips were dipped in lubricant immediately before inoculation. During catheterization, urine was aspirated from the bladder prior to inoculation with 50 µL of UPEC inoculum, prepared as described above. Mice were housed with their drug-dosed cohort and dosed intraperitoneally according to each experiment’s dosing regimen as shown in the figures. Dosing regimen for BAP trial 1 (Fig. 7b)consisted of IP administration of BAP (300 mg/kg) 30 min before inoculation; dosing regimen for BAP trial 2 (Fig. 7c) consisted of IP administration of BAP (600 mg/kg) 30 min before inoculation followed with IP doses of BAP (300 mg/kg) at 1 and 3 hpi; dosing regimen for BAP trial 3 and the pro-hpAP trial (Fig. 7d) consisted of IP administration of BAP (600 mg/kg) or pro-hpAP (60 mg/kg) 30 min before inoculation followed with IP doses of BAP (300 mg/kg) or pro-hpAP (30 mg/kg) at 1, 3, and 24 hpi; dosing regimen 4 (Fig. S3) consisted of IP administration of BAP (600 mg/kg) 30 min before inoculation followed with IP doses of BAP (300 mg/kg) at 1, 3, 6, 10, 22, 26, and 30 hpi. Gentamicin diluted in sterile PBS was used as a positive control and was administered to mice at 10 mg/kg IP 30 min prior to inoculation in all experiments.
After 48 h, mice were anesthetized by isoflurane inhalation and sacrificed by cervical dislocation. Bladders were harvested, added to 1 mL sterile PBS, and homogenized with a hand-held homogenizer in a biosafety cabinet. Tissue homogenates were serially-diluted (five 10-fold dilutions), and 100 µL of each dilution was plated onto LB plates and enumerated after a 24 h incubation at 37°C, yielding an effective detection range of 1 × 10^2–150 × 10^8 CFU/mL. In a few cases, bacterial counts fell below the lower limit of detection or above the upper limit of detection and are reported as 0 CFU/mL or conservatively 200 × 10^8 CFU/mL, respectively.

[3] = In vitro stability in mouse liver homogenate; type: in vitro ADME; details: mouse liver homogenate (10%, wt/vol), 10 µM
Protocol: as §1

Row | Compound | % remaining in liver microsomes ([1]; at 1 h) [%] | MICs (E. coli; under nutrient limitation) | % remaining in plasma ([2]; 10 µM, 37°C, at 1 h) [%] | protection against UTI (UPEC strain CFT073; BAP single 300 mg/kg IP dose 30 min prior to inoculation, 300 mg/kg) | median log reduction of bacterial burden vs PBS-treated cohort (UPEC strain CFT073; BAP trial 1: 300 mg/kg IP 30 min before inoculation (1 dose)) | median log reduction of bacterial burden vs PBS-treated cohort (UPEC strain CFT073; BAP trial 2: 600 mg/kg IP 30 min before inoculation, 300 mg/kg at 1 and 3 hpi (3 doses)) [log] | median log reduction of bacterial burden vs PBS-treated cohort (UPEC strain CFT073; BAP trial 3: 600 mg/kg IP 30 min before inoculation, 300 mg/kg at 1, 3 and 24 hpi (4 doses)) [log] | log reduction of bacterial burden vs PBS control (UPEC strain CFT073; regimen 4: BAP 600 mg/kg IP 30 min before inoculation, 300 mg/kg at 1, 3, 6, 10, 22, 26 and 30 hpi) [log] | % remaining in liver homogenate ([3]; at 1 h) [%] | remaining at 1 h [1] [%] | MIC (E. coli; standard nutrient limitation conditions) | remaining at 1 h, 10 µM ([2]; CD1, 37°C) [%] | median log reduction of bacterial burden vs PBS-treated cohort (UPEC strain CFT073; pro-hpAP 60 mg/kg IP 30 min before inoculation, 30 mg/kg at 1, 3 and 24 hpi (4 doses)) [log] | prodrug remaining in liver homogenate ([3]; 30 min incubation)
1 | CCCCOP(=O)(O)C(C)=O [BAP, butyl acetylphosphonate] | 94 | low micromolar range | 79 | not adequate to provide protection against UPEC infection; also recorded: provides no protection against UTI | no reduction | 1.05 | 1.14 | 1.32 | 22 | – | – | – | – | –
2 | C#CCCOP(=O)(O)C(=C)NC(=O)C(CC(C)C)NC(=O)CN (centres unmarked) [pro-hpAP] | – | – | – | – | – | – | – | – | – | 90 | ~ 20 nM | 95 | 1.42 | no prodrug remaining
